tested on: 229E human corona virus (hCoV); assay: 229E live virus assay (CPE, ATPlite readout in MRC-5 cells); format: cell-based, hCoV-229E; details: Human coronavirus 229E, MRC5, hCoV-229E live virus, MOI 0.05, ATPlite readout, run in duplicate

Q: CC(C)C[C@@H](C(=O)N1C[C@]2(C[C@H]1C#N)C(=O)Nc1ccccc12)N(C)C(=O)c1cc2cccnc2cc1OC(F)F [Example 253] was tested. Which EC50 did it give?
A: < 100 nM

Q: For CC(C)C[C@@H](C(=O)N1C[C@]2(C[C@H]1C#N)C(=O)Nc1ccccc12)N(C)C(=O)c1cc2ccc(=O)[nH]c2cc1OC1CC1 [Example 254], which EC50 is on record?
A: < 100 nM

Q: CC(C)C[C@@H](C(=O)N1C[C@]2(C[C@H]1C#N)C(=O)Nc1ccccc12)N(C)C(=O)c1cc(Cl)c2[nH]c(C3CC3)nc2c1 [Example 256] was tested. Which EC50 did it give?
A: < 100 nM

Q: Which EC50 does the source give for CC(C)C[C@@H](C(=O)N1C[C@]2(C[C@H]1C#N)C(=O)Nc1ccccc12)N(C)C(=O)c1ccc2nc(-c3ccccc3)ccc2c1 [Example 257] here?
A: < 100 nM

Q: For COc1cc(C(=O)N(C)[C@@H](CC(C)C)C(=O)N2C[C@]3(C[C@H]2C#N)C(=O)Nc2ccccc23)nc2ccccc12 [Example 258], which EC50 is on record?
A: < 100 nM

Q: Cc1cc(C)c2ccc(C(=O)N(C)[C@@H](CC(C)C)C(=O)N3C[C@]4(C[C@H]3C#N)C(=O)Nc3ccccc34)nc2c1O [Example 259] was tested. Which EC50 did it give?
A: < 100 nM

Q: With CC(C)C[C@@H](C(=O)N1C[C@]2(C[C@H]1C#N)C(=O)Nc1ccccc12)N(C)C(=O)c1cnc2ccccc2c1O [Example 260] as the compound, how does the EC50 read?
A: < 100 nM

Q: How did the EC50 turn out when CC(C)C[C@@H](C(=O)N1C[C@]2(C[C@H]1C#N)C(=O)Nc1ccccc12)N(C)C(=O)c1ccccc1-c1ccccc1 [Example 261] was run?
A: 100 to 1000 nM

Q: CC(C)C[C@@H](C(=O)N1C[C@]2(C[C@H]1C#N)C(=O)Nc1ccccc12)N(C)C(=O)c1cc(-c2ccccc2)ccc1Cl [Example 262] was tested. Which EC50 did it give?
A: 100 to 1000 nM

Q: With CC(C)C[C@@H](C(=O)N1C[C@]2(C[C@H]1C#N)C(=O)Nc1ccccc12)N(C)C(=O)c1cccc(-c2ccc(C(F)(F)F)cc2)c1 [Example 263] as the compound, how does the EC50 read?
A: < 100 nM

Q: How did the EC50 turn out when CC(C)C[C@@H](C(=O)N1C[C@]2(C[C@H]1C#N)C(=O)Nc1ccccc12)N(C)C(=O)c1cccc(-c2ccccc2F)c1 [Example 264] was run?
A: < 100 nM

Q: How did the EC50 turn out when CC(C)C[C@@H](C(=O)N1C[C@]2(C[C@H]1C#N)C(=O)Nc1ccccc12)N(C)C(=O)c1cccc(-c2ccc(C#N)cc2)c1 [Example 265] was run?
A: 100 to 1000 nM

Q: With CC(C)C[C@@H](C(=O)N1C[C@]2(C[C@H]1C#N)C(=O)Nc1ccccc12)N(C)C(=O)c1cccc(-c2cccc(Cl)c2)c1 [Example 266] as the compound, how does the EC50 read?
A: < 100 nM

Q: How did the EC50 turn out when CC(C)C[C@@H](C(=O)N1C[C@]2(C[C@H]1C#N)C(=O)Nc1ccccc12)N(C)C(=O)c1cn(-c2ccccn2)nn1 [Example 267] was run?
A: < 100 nM

Q: CC(C)C[C@@H](C(=O)N1C[C@]2(C[C@H]1C#N)C(=O)Nc1ccccc12)N(C)C(=O)c1cnc2c(C(F)(F)F)cccc2c1 [Example 268] was tested. Which EC50 did it give?
A: < 100 nM

Q: Which EC50 does the source give for CC(C)C[C@@H](C(=O)N1C[C@]2(C[C@H]1C#N)C(=O)Nc1ccccc12)N(C)C(=O)c1nc2c(F)cc(F)cc2[nH]1 [Example 269] here?
A: < 100 nM

Q: How did the EC50 turn out when CC(C)C[C@@H](C(=O)N1C[C@]2(C[C@H]1C#N)C(=O)Nc1ccccc12)N(C)C(=O)c1nc2c(F)cc(F)c(F)c2[nH]1 [Example 270] was run?
A: < 100 nM

Q: With CC(C)C[C@@H](C(=O)N1C[C@]2(C[C@H]1C#N)C(=O)Nc1ccccc12)N(C)C(=O)c1ccc2c(Cl)ccnc2c1 [Example 271] as the compound, how does the EC50 read?
A: < 100 nM

Q: CC(C)C[C@@H](C(=O)N1C[C@]2(C[C@H]1C#N)C(=O)Nc1ccccc12)N(C)C(=O)c1ccc(F)c(-c2ccccc2)c1 [Example 272] was tested. Which EC50 did it give?
A: < 100 nM

Q: CC(C)C[C@@H](C(=O)N1C[C@]2(C[C@H]1C#N)C(=O)Nc1ccccc12)N(C)C(=O)c1nc2c(F)c(F)c(F)cc2[nH]1 [Example 273] was tested. Which EC50 did it give?
A: < 100 nM

Q: For CC(C)C[C@@H](C(=O)N1C[C@]2(C[C@H]1C#N)C(=O)Nc1ccccc12)N(C)C(=O)c1ccc2nccc(Br)c2c1 [Example 274], which EC50 is on record?
A: < 100 nM

Q: How did the EC50 turn out when CC(C)C[C@@H](C(=O)N1C[C@]2(C[C@H]1C#N)C(=O)Nc1ccccc12)N(C)C(=O)c1cc2cccnc2cc1F [Example 275] was run?
A: < 100 nM

Q: CC(C)C[C@@H](C(=O)N1C[C@]2(C[C@H]1C#N)C(=O)Nc1ccccc12)N(C)C(=O)c1ccc2c(=O)[nH]ccc2c1 [Example 276] was tested. Which EC50 did it give?
A: < 100 nM

Q: For CC(C)C[C@@H](C(=O)N1C[C@]2(C[C@H]1C#N)C(=O)Nc1ccccc12)N(C)C(=O)c1ccc(-c2ccccc2)cc1 [Example 277], which EC50 is on record?
A: < 100 nM

Q: For CC(C)C[C@@H](C(=O)N1C[C@]2(C[C@H]1C#N)C(=O)Nc1ccccc12)N(C)C(=O)c1cccc(-c2ccccc2C#N)c1 [Example 278], which EC50 is on record?
A: < 100 nM

Q: CC(C)C[C@@H](C(=O)N1C[C@]2(C[C@H]1C#N)C(=O)Nc1ccccc12)N(C)C(=O)c1cccc(-c2cccc(C#N)c2)c1 [Example 279] was tested. Which EC50 did it give?
A: < 100 nM

Q: With CC(C)C[C@@H](C(=O)N1C[C@]2(C[C@H]1C#N)C(=O)Nc1ccccc12)N(C)C(=O)c1nc2ccccc2n1C [Example 282] as the compound, how does the EC50 read?
A: < 100 nM

Q: How did the EC50 turn out when CC(C)C[C@@H](C(=O)N1C[C@]2(C[C@H]1C#N)C(=O)Nc1ccccc12)N(C)C(=O)c1cn(-c2ccc(F)cc2)nn1 [Example 283] was run?
A: < 100 nM

Q: For CC(C)C[C@@H](C(=O)N1C[C@]2(C[C@H]1C#N)C(=O)Nc1ccccc12)N(C)C(=O)c1cn(-c2ccc(Cl)cc2)nn1 [Example 284], which EC50 is on record?
A: < 100 nM

Q: How did the EC50 turn out when CC(C)C[C@@H](C(=O)N1C[C@]2(C[C@H]1C#N)C(=O)Nc1ccccc12)N(C)C(=O)c1ccc2cccnc2c1O [Example 285] was run?
A: < 100 nM

Q: How did the EC50 turn out when CC(C)C[C@@H](C(=O)N1C[C@]2(C[C@H]1C#N)C(=O)Nc1ccccc12)N(C)C(=O)c1cn(-c2cccc(Cl)c2)nn1 [Example 286] was run?
A: < 100 nM

Q: With CC(C)C[C@@H](C(=O)N1C[C@]2(C[C@H]1C#N)C(=O)Nc1ccccc12)N(C)C(=O)c1n[nH]c(-c2ccccc2)n1 [Example 288] as the compound, how does the EC50 read?
A: < 100 nM

Q: CC(C)C[C@@H](C(=O)N1C[C@]2(C[C@H]1C#N)C(=O)Nc1ccccc12)N(C)C(=O)c1cc(F)c2nn(C)cc2c1 [Example 309] was tested. Which EC50 did it give?
A: < 100 nM

Q: CC(C)C[C@@H](C(=O)N1C[C@]2(C[C@H]1C#N)C(=O)Nc1ccccc12)N(C)C(=O)c1cc(OC2CC2)c2nc(Cl)ccc2c1 [Example 310] was tested. Which EC50 did it give?
A: 100 to 1000 nM

Q: With CC(C)C[C@@H](C(=O)N1C[C@]2(C[C@H]1C#N)C(=O)Nc1ccccc12)N(C)C(=O)c1cc(F)c2nn(C3CC3)cc2c1 [Example 311] as the compound, how does the EC50 read?
A: < 100 nM

Q: Which EC50 does the source give for CC(C)C[C@@H](C(=O)N1C[C@]2(C[C@H]1C#N)C(=O)Nc1ccccc12)N(C)C(=O)c1cc(OC2CC2)c2ncccc2c1 [Example 312] here?
A: 100 to 1000 nM

Q: Which EC50 does the source give for CC(C)C[C@@H](C(=O)N1C[C@]2(C[C@H]1C#N)C(=O)Nc1ccccc12)N(C)C(=O)c1cc(OC2CC2)n2nc(C3CC3)c(C(=O)C(F)(F)F)c2c1 [Example 313] here?
A: > 1000 nM

Q: How did the EC50 turn out when CC(C)C[C@@H](C(=O)N1C[C@]2(C[C@H]1C#N)C(=O)Nc1ccccc12)N(C)C(=O)c1cc(F)c2nc(C3CC3)c(C(=O)C(F)(F)F)n2c1 [Example 314] was run?
A: < 100 nM

Q: CC(C)C[C@@H](C(=O)N1C[C@]2(C[C@H]1C#N)C(=O)Nc1ccccc12)N(C)C(=O)c1cc(OC2CC2)n2nc(C3CC3)cc2c1 [Example 315] was tested. Which EC50 did it give?
A: 100 to 1000 nM

Q: How did the EC50 turn out when CC(C)C[C@@H](C(=O)N1C[C@]2(C[C@H]1C#N)C(=O)Nc1ccccc12)N(C)C(=O)c1cc(Cl)c2nn(C3CC3)cc2c1 [Example 316] was run?
A: < 100 nM

Q: How did the EC50 turn out when CC(C)C[C@@H](C(=O)N1C[C@]2(C[C@H]1C#N)C(=O)Nc1ccccc12)N(C)C(=O)c1cc(OC2CC2)c2nc(C3CC3)sc2c1 [Example 317] was run?
A: 100 to 1000 nM

Q: For CC(C)C[C@@H](C(=O)N1C[C@]2(C[C@H]1C#N)C(=O)Nc1ccccc12)N(C)C(=O)c1cc(F)c2nc(C3CC3)cn2c1 [Example 318], which EC50 is on record?
A: < 100 nM

Q: COc1cc(C(=O)N(C)[C@@H](CC(C)C)C(=O)N2C[C@]3(C[C@H]2C#N)C(=O)Nc2ccccc23)cc2cn(C3(C)CC3)nc12 [Example 319] was tested. Which EC50 did it give?
A: < 100 nM

Q: COc1cc(C(=O)N(C)[C@@H](CC(C)C)C(=O)N2C[C@]3(C[C@H]2C#N)C(=O)Nc2ccccc23)cc2cn(C3CCC3)nc12 [Example 320] was tested. Which EC50 did it give?
A: 100 to 1000 nM

Q: With Cc1ccc2cc(C(=O)N(C)[C@@H](CC(C)C)C(=O)N3C[C@]4(C[C@H]3C#N)C(=O)Nc3ccccc34)cc(OC3CC3)c2n1 [Example 321] as the compound, how does the EC50 read?
A: 100 to 1000 nM

Q: With CC(C)C[C@@H](C(=O)N1C[C@]2(C[C@H]1C#N)C(=O)Nc1ccccc12)N(C)C(=O)c1cc(OC(F)(F)F)c2ncccc2c1 [Example 322] as the compound, how does the EC50 read?
A: < 100 nM

Q: With Cc1cc2cc(C(=O)N(C)[C@@H](CC(C)C)C(=O)N3C[C@]4(C[C@H]3C#N)C(=O)Nc3ccccc34)cc(OC3CC3)c2nc1C [Example 323] as the compound, how does the EC50 read?
A: 100 to 1000 nM

Q: Which EC50 does the source give for CC(C)C[C@@H](C(=O)N1C[C@]2(C[C@H]1C#N)C(=O)Nc1ccccc12)N(C)C(=O)c1cc(OC2CC2)c2ncc(C3CC3)cc2c1 [Example 324] here?
A: 100 to 1000 nM

Q: With Cc1cc(F)c(C(=O)N(C)[C@@H](CC(C)C)C(=O)N2C[C@]3(C[C@H]2C#N)C(=O)Nc2ccccc23)cc1-c1cnn(C2CC2)c1 [Example 342] as the compound, how does the EC50 read?
A: 100 to 1000 nM

Q: CC(C)C[C@@H](C(=O)N1C[C@]2(C[C@H]1C#N)C(=O)Nc1ccccc12)N(C)C(=O)c1ccc(OC2CC2)c(-c2cccnc2)c1 [Example 343] was tested. Which EC50 did it give?
A: 100 to 1000 nM

Q: How did the EC50 turn out when CC(C)C[C@@H](C(=O)N1C[C@]2(C[C@H]1C#N)C(=O)Nc1ccccc12)N(C)C(=O)[C@H]1CCN(C(=O)OC(C)(C)C)C1 [Example 344] was run?
A: 100 to 1000 nM

Q: With CC(C)C[C@@H](C(=O)N1C[C@]2(C[C@H]1C#N)C(=O)Nc1ccccc12)N(C)C(=O)[C@@H](c1cnn(C)c1)C(C)C [Example 348] as the compound, how does the EC50 read?
A: 100 to 1000 nM

Q: How did the EC50 turn out when CC(C)C[C@@H](C(=O)N1C[C@]2(C[C@H]1C#N)C(=O)Nc1ccccc12)N(C)C(=O)[C@H](c1cnn(C)c1)C(C)C [Example 349] was run?
A: 100 to 1000 nM

Q: How did the EC50 turn out when CC(C)C[C@@H](C(=O)N1C[C@]2(C[C@H]1C#N)C(=O)Nc1ccccc12)N(C)C(=O)[C@@H](c1cn(C)nn1)C(C)C [Example 350] was run?
A: 100 to 1000 nM

Q: For CC(C)C[C@@H](C(=O)N1C[C@]2(C[C@H]1C#N)C(=O)Nc1ccccc12)N(C)C(=O)[C@H](c1cn(C)nn1)C(C)C [Example 351], which EC50 is on record?
A: 100 to 1000 nM

Q: CC(C)C[C@@H](C(=O)N1C[C@]2(C[C@H]1C#N)C(=O)Nc1ccccc12)N(C)C(=O)c1cnn(C(C)(C)C)c1 [Example 352] was tested. Which EC50 did it give?
A: < 100 nM

Q: With CC(C)C[C@@H](C(=O)N1C[C@]2(C[C@H]1C#N)C(=O)Nc1ccccc12)N(C)C(=O)c1cnn(-c2ccccc2C(F)(F)F)c1 [Example 353] as the compound, how does the EC50 read?
A: < 100 nM

same assay, conditions: hCoV-229E live virus, MOI 0.05, ATPlite readout, run in duplicate

Q: Which EC50 does the source give for CC(C)C[C@@H](C(=O)N1C[C@]2(C[C@H]1C#N)C(=O)Nc1ccccc12)N(C)C(=O)[C@@H]1CCN(C(=O)OC(C)(C)C)C1 [Example 345] here?
A: < 100 nM
